Reference: US6919330B2, “Formulations of drugs” (Laxdale Limited, priority 2002, dated 2005)

Test: Plasma and red cell selenium levels in healthy controls and patient groups on drugs
Assay type: in vivo, human
Details: schizophrenic patients on the drug, compared with the other groups
Text: Here the selenium levels are expressed in μmol/litre and are shown as means plus or minus the Standard Error of the Mean (SEM)

- selenium levels: exceptionally low
SMILES: CN1CCN(C2=Nc3cc(Cl)ccc3Nc3ccccc32)CC1 [clozapine]
